From patent US20130071931A1, “PROCESS FOR HEPATIC DIFFERENTIATION FROM INDUCED HEPATIC STEM CELLS, AND INDUCED HEPATIC PROGENITOR CELLS DIFFERENTIATED THEREBY” (NATIONAL CANCER CENTER, priority 2011, published 2013)
pIC50: −log10 of the molar value.

Columns and labels:
[1] = tested on: human induced hepatic stem cells AFB1-1; experiment: AFP in culture supernatant (Example 13); type: cell-based; settings: cell sample No. 835: 0.5 μM A-83-01/ReproStem (bFGF-free), no feeder cells, Matrigel
Source text: The medium was replaced everyday with a fresh human ES/iPS cell medium (mTeSR1) to continue culture until reaching 50-80% confluence per dish. […] The resultant cell sample is referred to as “No. 835”.

[2] = tested on: human induced hepatic stem cells AFB1-1; experiment: AFP in culture supernatant, hepatic differentiation on Matrigel (Examples 2-4); settings: no feeder cells, 13 days after seeding
[3] = tested on: human induced hepatic stem cells AFB1-1; experiment: AFP in culture supernatant, collagen coat (Example 19); type: cell-based; settings: no feeder cells
[4] = tested on: phosphorylation of Smad2/3; settings: cited from earlier work
[5] = tested on: extracellular signal regulated kinase; settings: cited from earlier work
rat iPS cells = settings: added to a rat iPS cell culture medium; cited from earlier work
ALK 4 = settings: cited from earlier work
[6] = tested on: human induced hepatic stem cells AFB1-1; experiment: Quantitative RT-PCR of marker genes, hepatic differentiation on Matrigel (Examples 2-4); type: cell-based; settings: no feeder cells, 13 days, No. 377 taken as 1
[7] = tested on: human induced hepatic stem cells AFB 1-1; experiment: AFP in culture supernatant, suspension (three-dimensional) culture (Examples 6-10); type: cell-based; settings: cell samples Nos. 473-475: suspension culture, ReproStem (bFGF-free)/Y-27632 5 μM, low-attachment plate, no feeder cells, 7 days after seeding; A-83-01 0.1 μM, OsM 10 ng/mL, DEX 0.1 μM where present
Protocol: The cell pellets were lysed in 1 mL/well of a QIAzol reagent (refer to Table 8B).
Six days after the seeding, the cells were recovered centrifugally and then suspended in 2 mL of a fresh ReproStem (bFGF-free)/Y-27632 (5 μM) supplemented with 10 ng/mL oncostatin M (OsM) and 0.1 μM dexamethasone (DEX), to continue hepatic differentiation culture in the above culture plate. […] The cell pellets were lysed in 1 mL/well of a QIAzol reagent (refer to Table 8B).

[8] = tested on: human induced hepatic stem cells AFB1-1; experiment: Quantitative RT-PCR, differentiation with TGF-β signaling inhibitors (Example 12); type: cell-based; settings: cell samples Nos. 1545-1549: 0.5 μM inhibitor in ReproStem (bFGF-free), no feeder cells, Matrigel, 13 days after seeding
Protocol: The resultant cell samples are respectively referred to as “Nos. 1545-1549”. No. 1544 was cultured in the absence of any inhibitor. Nos. 1545-1549 were cultured in the presence of the following inhibitors, respectively.
Thirteen days after the seeding, the cells were lysed in 1 mL/well of a QIAzol reagent to prepare the total RNA from the cell lysate using the miRNeasy Mini Kit (Qiagen). The total RNA was subjected to quantitative RT-PCR using the iScript Advanced cDNA synthesis kit, the SsoAdvanced SYBR Green Supremix ([…]), and the CFX96 Real-Time System C1000 Thermal Cycler, all manufactured by Bio-Rad. The quantified genes were ALB, AAT, TTR, AFP, cytokeratin 7 (KRT7), cytokeratin 19 (KRT19), and DLK1 (Delta-like 1 homolog).

[9] = tested on: type I receptor for the osteogenic factor; settings: cited from earlier work
[10] = tested on: TGF-β induced epithelial-mesenchymal transformation; settings: cited from earlier work
p38 MAP kinase = settings: cited from earlier work
[11] = tested on: human induced hepatic stem cells AFB1-1; experiment: AFP in culture supernatant (Example 18); type: cell-based; settings: cell sample No. 705: A-83-01 (0.5 μM at start, 0.1 μM at medium changes)/ReproStem (bFGF-free), no feeder cells, Matrigel
[12] = cell sample No. 393: 0.1 μM A-83-01/mTeSR1 + 100 ng/mL bFGF
[13] = cell sample No. 394: 0.1 μM A-83-01/aFGF 10 ng/mL/ReproStem (bFGF-free)

Compound: Cc1cccc(-c2nn(C(=S)Nc3ccccc3)cc2-c2ccnc3ccccc23)n1 [A-83-01, 3-(6-methyl-2-pyridinyl)-N-phenyl-4-(4-quinolinyl)-1H-pyrazolo-1-carbothioamide]
- AFP yield (culture supernatant) ([1]; 6 days after the seeding): 6,430 ng/mL
- AFP yield (culture supernatant) ([1]; 13 days after the seeding): 30,900 ng/mL
- α-fetoprotein (AFP) in culture supernatant [2, 12]: 3,120 ng/mL
- α-fetoprotein (AFP) in culture supernatant [2, 13]: 14,400 ng/mL
- AFP expression level (culture supernatant) ([3]; cell sample No. 634: 0.1 μM A-83-01/ReproStem (bFGF-free), collagen plate without Matrigel, 6 days after the seeding): 2,890 ng/mL
- AFP expression level (culture supernatant) ([3]; cell sample No. 634: 0.1 μM A-83-01/ReproStem (bFGF-free), collagen plate without Matrigel, 14 days after the seeding): 24,900 ng/mL
- AFP expression level (culture supernatant) ([3]; cell sample No. 637: 0.1 μM A-83-01/ReproStem (bFGF-free), collagen plate coated with Matrigel, 6 days after the seeding): 3,040 ng/mL
- AFP expression level (culture supernatant) ([3]; cell sample No. 637: 0.1 μM A-83-01/ReproStem (bFGF-free), collagen plate coated with Matrigel, 14 days after the seeding): 30,000 ng/mL
- phosphorylation of Smad2/3 [4]: inhibits
- effect on the extracellular signal regulated kinase [5]: little or no effect
- culture of rat iPS cells (rat iPS cells): allows uniform proliferation and prolonged culture of rat iPS cells without differentiation
- pIC50 (ALK 4): 7.92
- AAT expression level [6, 12]: 240
- AFP expression level [6, 12]: 1,791
- ALB expression level [6, 12]: 1,925
- DLK1 expression level [6, 12]: 404
- TTR expression level [6, 12]: 2,871
- AAT expression level [6, 13]: 3,812
- AFP expression level [6, 13]: 12,812
- AHSG expression level [6, 13]: 14,079
- ALB expression level [6, 13]: 45,698
- APOA4 expression level [6, 13]: 966
- DLK1 expression level [6, 13]: 804
- FABP1 expression level [6, 13]: 3,034
- FGG expression level [6, 13]: 10,138
- FOXA2 expression level [6, 13]: 0.19
- HGF expression level [6, 13]: 11
- HNF1A expression level [6, 13]: 0.88
- HNF4A expression level [6, 13]: 0.39
- KRT7 expression level [6, 13]: 37.5
- NANOG expression level [6, 13]: 0.01
- OCT3/4 (POU5F1) expression level [6, 13]: 0.07
- RBP4 expression level [6, 13]: 4,326
- SOX2 expression level [6, 13]: 0.08
- SOX17 expression level [6, 13]: 0.03
- TF expression level [6, 13]: 9,126
- TTR expression level [6, 13]: 9,113
- α-fetoprotein (AFP) in culture supernatant [7]: 324 ng/mL
- AAT expression Ct value [8]: 23.57
- AFP expression Ct value [8]: 17.21
- ALB expression Ct value [8]: 20.95
- DLK1 expression Ct value [8]: 18.15
- KRT7 expression Ct value [8]: 20.51
- KRT19 expression Ct value [8]: 22.05
- TTR expression Ct value [8]: 16.96
- GAPDH expression Ct value ([8]; housekeeping gene): 14.22
- effect on type I receptor for the osteogenic factor [9]: little or no effect
- TGF-β induced epithelial-mesenchymal transformation [10]: inhibits
- effect on p38 MAP kinase (p38 MAP kinase): little or no effect
- AFP expression level (culture supernatant) ([11]; 8 days after the seeding): 5,540 ng/mL
- AFP expression level (culture supernatant) ([11]; 13 days after the seeding): 2,320 ng/mL
